Results from ChEMBL document CHEMBL4732071, “Discovery of selective HDAC/BRD4 dual inhibitors as epigenetic probes” (Eur J Med Chem, 2021).
The source made the active and inactive calls. No cut-off for these calls is given here.

Experiments:
[1] = biological target: T1, Bromodomain-containing protein 4 (Homo sapiens, UniProt O60885); test: Inhibition of His-tagged BRD4 bromodomain 1 (unknown origin) using [Lys (5,8,12,16) Ac] H4(1-21) as substrate by fluorescence based assay
[2] = biological target: T2, Protein deacetylase HDAC6 (Homo sapiens) (UniProt Q9UBN7); test: Inhibition of HDAC6 in human MV4-11 cells assessed as increase in acetylated alpha-tubulin at 1 uM incubated for 24 hrs by Western blot analysis; format: cell-based
T2 sequence (whole entry): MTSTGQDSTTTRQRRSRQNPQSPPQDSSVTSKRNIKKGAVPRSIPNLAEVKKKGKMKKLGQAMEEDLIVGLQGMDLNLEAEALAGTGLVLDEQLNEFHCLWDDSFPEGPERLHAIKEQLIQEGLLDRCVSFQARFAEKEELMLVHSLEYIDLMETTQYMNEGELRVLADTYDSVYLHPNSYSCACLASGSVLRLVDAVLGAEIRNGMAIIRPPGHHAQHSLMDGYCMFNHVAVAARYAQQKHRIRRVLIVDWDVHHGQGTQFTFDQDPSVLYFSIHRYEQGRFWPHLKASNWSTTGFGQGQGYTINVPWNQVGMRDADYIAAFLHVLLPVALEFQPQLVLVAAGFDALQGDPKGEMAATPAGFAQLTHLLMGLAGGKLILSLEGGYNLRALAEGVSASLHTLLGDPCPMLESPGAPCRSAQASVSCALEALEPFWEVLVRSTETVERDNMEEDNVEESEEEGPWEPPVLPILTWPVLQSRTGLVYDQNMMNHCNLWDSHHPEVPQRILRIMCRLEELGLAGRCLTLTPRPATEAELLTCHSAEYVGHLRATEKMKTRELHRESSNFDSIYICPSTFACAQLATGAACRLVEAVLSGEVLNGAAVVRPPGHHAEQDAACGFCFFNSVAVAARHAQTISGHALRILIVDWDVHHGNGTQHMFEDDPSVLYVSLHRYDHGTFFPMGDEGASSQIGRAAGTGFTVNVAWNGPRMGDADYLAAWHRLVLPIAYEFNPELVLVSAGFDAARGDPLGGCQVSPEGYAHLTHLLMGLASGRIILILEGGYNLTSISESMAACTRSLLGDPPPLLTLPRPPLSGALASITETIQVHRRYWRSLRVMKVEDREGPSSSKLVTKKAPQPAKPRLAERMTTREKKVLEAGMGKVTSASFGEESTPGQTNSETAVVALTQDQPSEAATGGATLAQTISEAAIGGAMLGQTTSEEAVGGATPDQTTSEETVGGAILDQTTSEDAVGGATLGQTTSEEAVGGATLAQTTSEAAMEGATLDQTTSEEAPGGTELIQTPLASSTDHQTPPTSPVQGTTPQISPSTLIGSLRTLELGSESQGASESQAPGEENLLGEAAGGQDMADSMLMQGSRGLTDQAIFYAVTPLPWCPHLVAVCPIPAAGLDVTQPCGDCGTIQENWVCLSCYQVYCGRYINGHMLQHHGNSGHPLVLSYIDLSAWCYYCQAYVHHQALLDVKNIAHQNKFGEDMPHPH

[3] = biological target: T1, Bromodomain-containing protein 4; test: Inhibition of BRD4 in human MV4-11 cells assessed as reduction in c-Myc expression at 10 to 1000 nM measured after 24 hrs by Western blot analysis; format: cell-based; settings: dose 10-1000 nM
[4] = biological target: T3, Histone deacetylase 1 (Homo sapiens, UniProt Q13547); test: Inhibition of HDAC1 (unknown origin) by fluorescence based assay
[5] = biological target: T1, Bromodomain-containing protein 4; test: Inhibition of His-tagged BRD4 bromodomain 2 (unknown origin) using [Lys (5,8,12,16) Ac] H4(1-21) as substrate by fluorescence based assay
[6] = biological target: T3, Histone deacetylase 1; test: Inhibition of HDAC1 in human MV4-11 cells assessed as increase in acetylated H3 at 1 uM incubated for 24 hrs by Western blot analysis; format: cell-based
[7] = biological target: T4, Protein deacetylase HDAC6 (Homo sapiens, UniProt Q9UBN7); test: Inhibition of HDAC6 (unknown origin) by fluorescence based assay
T4 sequence (Q9UBN7 whole entry): T2 sequence (whole entry)

[8] = tested on: MV4-11; test: Antiproliferative activity against human MV4-11 cells assessed as cell viability after 72 hrs by CCK8 assay; format: functional, cell-based; settings: MV4-11, 72 h
[9] = biological target: T3, Histone deacetylase 1; test: Inhibition of HDAC1 in human MV4-11 cells assessed as increase in acetylated H3 at 10 to 1000 nM incubated for 24 hrs by Western blot analysis; format: cell-based; settings: dose 10-1000 nM
[10] = biological target: T5, Histone deacetylase 11 (Homo sapiens, UniProt Q96DB2); test: Inhibition of HDAC11 (unknown origin) by fluorescence based assay
T5 sequence (Q96DB2 whole entry): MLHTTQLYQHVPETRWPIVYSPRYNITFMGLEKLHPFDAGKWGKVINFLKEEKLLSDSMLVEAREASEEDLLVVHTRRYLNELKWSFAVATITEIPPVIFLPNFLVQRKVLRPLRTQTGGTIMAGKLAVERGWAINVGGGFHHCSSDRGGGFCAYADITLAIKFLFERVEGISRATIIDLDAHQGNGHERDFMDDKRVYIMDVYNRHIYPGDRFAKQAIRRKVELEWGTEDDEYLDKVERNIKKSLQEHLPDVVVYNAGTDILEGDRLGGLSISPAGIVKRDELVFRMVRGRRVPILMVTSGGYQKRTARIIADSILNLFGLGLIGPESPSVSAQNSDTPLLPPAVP

[11] = biological target: T6, Histone deacetylase 8 (Homo sapiens, UniProt Q9BY41); test: Inhibition of HDAC8 (unknown origin) by fluorescence based assay
T6 sequence (Q9BY41 whole entry): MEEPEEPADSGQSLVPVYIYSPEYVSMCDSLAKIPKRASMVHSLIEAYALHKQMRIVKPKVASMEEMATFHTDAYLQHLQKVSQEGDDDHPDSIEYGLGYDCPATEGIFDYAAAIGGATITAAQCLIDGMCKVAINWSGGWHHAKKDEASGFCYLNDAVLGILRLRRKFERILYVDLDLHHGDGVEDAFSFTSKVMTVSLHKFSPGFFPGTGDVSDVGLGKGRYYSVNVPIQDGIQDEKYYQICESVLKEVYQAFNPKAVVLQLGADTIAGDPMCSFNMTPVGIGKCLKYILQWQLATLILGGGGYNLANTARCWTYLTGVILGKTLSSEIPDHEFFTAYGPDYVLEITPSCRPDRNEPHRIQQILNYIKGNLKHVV

[12] = biological target: Histone deacetylase 3 (Homo sapiens, UniProt O15379); test: Inhibition of HDAC3 (unknown origin) by fluorescence based assay
[13] = biological target: T1, Bromodomain-containing protein 4; test: Inhibition of BRD4 in human MV4-11 cells assessed as reduction in c-Myc expression measured after 24 hrs by Western blot analysis; format: cell-based; settings: dose 10-1000 nM
[14] = tested on: MV4-11; test: Induction of apoptosis in human MV4-11 cells at 1000 nM after 24 hrs by flow cytometry relative to control; format: functional
[15] = biological target: Histone deacetylase 4 (Homo sapiens, UniProt P56524); test: Inhibition of HDAC4 (unknown origin) by fluorescence based assay
[16] = tested on: MV4-11; test: Induction of cell cycle arrest in human MV4-11 cells assessed as accumulation at G0/G1 phase at 1000 nM after 24 hrs by flow cytometry; format: functional, cell-based
[17] = biological target: T2, Protein deacetylase HDAC6 (Homo sapiens); test: Inhibition of HDAC6 in human MV4-11 cells assessed as increase in acetylated alpha-tubulin at 10 to 1000 nM incubated for 24 hrs by Western blot analysis; format: cell-based; settings: dose 10-1000 nM
[18] = biological target: T1, Bromodomain-containing protein 4; test: Inhibition of BRD4 in human MV4-11 cells assessed as upregulation of p21 expression at 10 to 1000 nM measured after 24 hrs by Western blot analysis; format: cell-based; settings: dose 10-1000 nM

Histone deacetylase 4, sequence (P56524 whole entry): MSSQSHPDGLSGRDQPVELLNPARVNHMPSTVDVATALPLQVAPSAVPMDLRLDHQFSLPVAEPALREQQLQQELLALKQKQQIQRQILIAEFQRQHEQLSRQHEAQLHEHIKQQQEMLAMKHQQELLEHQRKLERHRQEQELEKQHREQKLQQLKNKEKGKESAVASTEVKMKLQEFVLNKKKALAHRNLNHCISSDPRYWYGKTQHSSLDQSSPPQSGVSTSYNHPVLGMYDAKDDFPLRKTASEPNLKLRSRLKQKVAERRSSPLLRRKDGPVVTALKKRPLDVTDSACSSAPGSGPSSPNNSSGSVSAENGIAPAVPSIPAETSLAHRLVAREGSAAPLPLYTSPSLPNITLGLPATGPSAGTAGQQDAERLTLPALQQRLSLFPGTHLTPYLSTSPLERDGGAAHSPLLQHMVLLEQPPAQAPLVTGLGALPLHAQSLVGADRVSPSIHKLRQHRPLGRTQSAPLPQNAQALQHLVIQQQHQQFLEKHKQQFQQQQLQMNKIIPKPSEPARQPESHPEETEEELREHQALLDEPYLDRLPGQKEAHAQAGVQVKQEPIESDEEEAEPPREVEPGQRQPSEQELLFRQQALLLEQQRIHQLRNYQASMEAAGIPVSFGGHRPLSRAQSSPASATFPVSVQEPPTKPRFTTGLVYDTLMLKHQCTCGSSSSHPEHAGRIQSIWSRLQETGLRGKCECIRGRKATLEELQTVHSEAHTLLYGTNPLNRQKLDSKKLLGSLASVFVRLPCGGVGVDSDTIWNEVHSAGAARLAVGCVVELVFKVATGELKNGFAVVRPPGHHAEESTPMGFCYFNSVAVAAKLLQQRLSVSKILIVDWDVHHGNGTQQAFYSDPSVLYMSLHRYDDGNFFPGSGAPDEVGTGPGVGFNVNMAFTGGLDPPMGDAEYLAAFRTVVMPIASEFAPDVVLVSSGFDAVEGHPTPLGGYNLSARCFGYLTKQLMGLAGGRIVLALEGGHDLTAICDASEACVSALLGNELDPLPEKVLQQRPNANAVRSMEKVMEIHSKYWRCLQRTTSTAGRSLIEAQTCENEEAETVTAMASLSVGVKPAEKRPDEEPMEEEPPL
T3 sequence (Q13547 whole entry): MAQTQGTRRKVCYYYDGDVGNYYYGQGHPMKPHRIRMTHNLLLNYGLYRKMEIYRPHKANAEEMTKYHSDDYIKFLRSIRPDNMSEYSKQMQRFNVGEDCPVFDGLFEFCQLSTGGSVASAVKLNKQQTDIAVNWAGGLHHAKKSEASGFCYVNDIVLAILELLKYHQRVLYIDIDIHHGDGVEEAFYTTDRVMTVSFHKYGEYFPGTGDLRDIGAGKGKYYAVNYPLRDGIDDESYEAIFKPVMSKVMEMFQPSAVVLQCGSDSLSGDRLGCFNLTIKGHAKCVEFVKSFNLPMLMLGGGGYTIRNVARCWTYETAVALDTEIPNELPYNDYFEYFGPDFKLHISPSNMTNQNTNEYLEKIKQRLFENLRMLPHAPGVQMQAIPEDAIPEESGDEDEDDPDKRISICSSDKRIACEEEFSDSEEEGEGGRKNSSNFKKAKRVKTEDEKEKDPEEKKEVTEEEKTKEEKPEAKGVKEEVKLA
Histone deacetylase 3, sequence (O15379 whole entry): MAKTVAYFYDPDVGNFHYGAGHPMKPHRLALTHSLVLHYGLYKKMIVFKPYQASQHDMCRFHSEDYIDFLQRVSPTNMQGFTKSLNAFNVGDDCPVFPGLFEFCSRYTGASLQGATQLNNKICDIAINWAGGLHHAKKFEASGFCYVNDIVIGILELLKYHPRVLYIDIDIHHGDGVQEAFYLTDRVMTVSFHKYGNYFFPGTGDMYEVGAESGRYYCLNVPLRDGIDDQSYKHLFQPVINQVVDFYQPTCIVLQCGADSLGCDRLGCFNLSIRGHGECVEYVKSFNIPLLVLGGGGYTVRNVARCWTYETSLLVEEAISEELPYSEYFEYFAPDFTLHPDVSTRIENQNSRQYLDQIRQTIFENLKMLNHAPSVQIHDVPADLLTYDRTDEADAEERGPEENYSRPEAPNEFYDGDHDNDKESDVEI

IC50 [1]	inhibition [2]	inhibition [3]	IC50 [4]	IC50 [5]	inhibition [6]	IC50 [7]	IC50 [8]	inhibition [9]	IC50 [10]	IC50 [11]	IC50 [12]	inhibition [13]	IC50 [15]	Acetylated alpha-tubulin increase (active/not active) [17]	inhibition [18]	SMILES	Activity [14]	Activity [16]
38.6 nM	Active	Active	29.5 nM	5.3 nM	Active	4.7 nM	180 nM	–	–	–	–	–	–	–	–	Cn1cc(-c2ccccc2Oc2ccccc2)c2cc(C(=O)NCCCCCCC(=O)NO)[nH]c2c1=O	–	–
5.6 nM	–	–	59.7 nM	2.1 nM	–	–	40 nM	Active	> 10000 nM	> 10000 nM	1440 nM	Active	> 10000 nM	–	–	CC(C)Oc1ccc(C(C)(C)O)cc1-c1cn(C)c(=O)c2[nH]c(C(=O)NCc3ccc(C(=O)Nc4ccccc4N)cc3)cc12	57.31%	–
369 nM	–	–	228 nM	1.2 nM	–	17.2 nM	300 nM	–	2750 nM	583 nM	161 nM	Active	> 10000 nM	Active	–	Cc1cc(F)cc(C)c1Oc1ccc(C(C)(C)O)cc1-c1cn(C)c(=O)c2[nH]c(C(=O)NCCCCCCC(=O)NO)cc12	19.29%	Active
42.1 nM	–	Active	168 nM	11.3 nM	–	15.3 nM	570 nM	inactive	–	–	–	–	–	Active	–	Cn1cc(-c2ccccc2Oc2ccccc2)c2cc(C(=O)NCc3ccc(C(=O)NO)cc3)[nH]c2c1=O	–	–
13.1 nM	–	Active	142 nM	4.8 nM	–	4 nM	180 nM	–	–	–	–	–	–	inactive	–	Cn1cc(-c2ccccc2Oc2ccccc2)c2cc(C(=O)NCCCCC(=O)NO)[nH]c2c1=O	–	–
31.7 nM	–	Active	126 nM	18.7 nM	–	> 500 nM	80 nM	Active	–	–	–	–	–	inactive	Active	Cn1cc(-c2ccccc2Oc2ccccc2)c2cc(C(=O)NCc3ccc(C(=O)Nc4ccccc4N)cc3)[nH]c2c1=O	–	–
29.5 nM	–	–	19.4 nM	6 nM	–	5.4 nM	160 nM	Active	> 10000 nM	99.6 nM	36.4 nM	Active	> 10000 nM	Active	–	CC(C)Oc1ccc(C(C)(C)O)cc1-c1cn(C)c(=O)c2[nH]c(C(=O)NCCCCCCC(=O)NO)cc12	53.73%	–
